Assay results from PubChem BioAssay (NCI).
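Step 1: Grow cells in 96-well plates. Step 2: Expose to compound for 48 hours at 5 concentrations. Step 3: Interpolate endpoints linearly; if unreached, use highest concentration. The concentration for full growth arrest is given as TGI.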

Key:
Assay in all cases: growth of human tumour cells (NCI), 48 h
786-0 renal = system: 786-0 renal
A498 renal = system: A498 renal
A549 NSCLC = system: A549 NSCLC
ACHN renal = system: ACHN renal
BT-549 breast = system: BT-549 breast
CCRF-CEM leukemia = system: CCRF-CEM leukemia
COLO 205 colon = system: COLO 205 colon
DU-145 prostate = system: DU-145 prostate
EKVX NSCLC = system: EKVX NSCLC
HCC-2998 colon = system: HCC-2998 colon
HCT-116 colon = system: HCT-116 colon
HCT-15 colon = system: HCT-15 colon
HL-60(TB) leukemia = system: HL-60(TB) leukemia
HOP-62 NSCLC = system: HOP-62 NSCLC
HOP-92 NSCLC = system: HOP-92 NSCLC
IGROV1 ovarian = system: IGROV1 ovarian
K-562 leukemia = system: K-562 leukemia
KM12 colon = system: KM12 colon
LOX IMVI melanoma = system: LOX IMVI melanoma
M14 melanoma = system: M14 melanoma
MCF7 breast = system: MCF7 breast
MDA-MB-435 = system: MDA-MB-435
MOLT-4 leukemia = system: MOLT-4 leukemia
NCI-H226 lung = system: NCI-H226 lung
NCI-H23 lung = system: NCI-H23 lung
NCI-H460 lung = system: NCI-H460 lung
NCI/ADR-RES ovarian = system: NCI/ADR-RES ovarian
OVCAR-3 ovarian = system: OVCAR-3 ovarian
OVCAR-4 ovarian = system: OVCAR-4 ovarian
OVCAR-5 ovarian = system: OVCAR-5 ovarian
OVCAR-8 ovarian = system: OVCAR-8 ovarian
PC-3 prostate = system: PC-3 prostate
RPMI-8226 leukemia = system: RPMI-8226 leukemia
RXF 393 renal = system: RXF 393 renal
SF-295 CNS = system: SF-295 CNS
SK-MEL-2 melanoma = system: SK-MEL-2 melanoma
SK-MEL-28 melanoma = system: SK-MEL-28 melanoma
SK-MEL-5 melanoma = system: SK-MEL-5 melanoma
SK-OV-3 ovarian = system: SK-OV-3 ovarian
SNB-19 CNS = system: SNB-19 CNS
SNB-75 CNS = system: SNB-75 CNS
SR leukemia = system: SR leukemia
SW-620 colon = system: SW-620 colon
T-47D breast = system: T-47D breast
TK-10 renal = system: TK-10 renal
U251 CNS = system: U251 CNS
UACC-257 melanoma = system: UACC-257 melanoma
UACC-62 melanoma = system: UACC-62 melanoma
UO-31 renal = system: UO-31 renal

Measured: TGI

CC(C)(C)c1cc2c(O)c(c1)COCc1cc(C(C)(C)C)cc(c1O)COCc1cc(C(C)(C)C)cc(c1O)COC2
> 100 µM: 786-0 renal | A498 renal | A549 NSCLC | ACHN renal | BT-549 breast | CCRF-CEM leukemia | COLO 205 colon | DU-145 prostate | EKVX NSCLC | HCC-2998 colon | HCT-116 colon | HCT-15 colon | HL-60(TB) leukemia | HOP-62 NSCLC | HOP-92 NSCLC | IGROV1 ovarian | K-562 leukemia | KM12 colon | LOX IMVI melanoma | M14 melanoma | MCF7 breast | MDA-MB-435 | MOLT-4 leukemia | NCI-H226 lung | NCI-H23 lung | NCI-H460 lung | NCI/ADR-RES ovarian | OVCAR-3 ovarian | OVCAR-4 ovarian | OVCAR-5 ovarian | OVCAR-8 ovarian | PC-3 prostate | RPMI-8226 leukemia | RXF 393 renal | SF-295 CNS | SK-MEL-2 melanoma | SK-MEL-28 melanoma | SK-MEL-5 melanoma | SK-OV-3 ovarian | SNB-19 CNS | SNB-75 CNS | SR leukemia | SW-620 colon | T-47D breast | TK-10 renal | U251 CNS | UACC-257 melanoma | UACC-62 melanoma | UO-31 renal
